# Assay results from patent US20260262643A1, “HERBICIDAL BENZOXAZINES” (FMC CORPORATION, priority 2022, published 2026).
# Where two headings read alike, the source gives them in different places.
# What was measured:
# pigweed, palmer = experiment: Test A postemergence; format: in vivo, Amaranthus palmeri; conditions: Amaranthus palmeri, post-emergence, 240 h, postemergence, 10 days, 0 to 100 scale (0 no effect, 100 complete control); for pest or weed control at 125 g/ha: 125 g ai/ha, read-out: Pigweed, Palmer plant response rating; for pest or weed control at 500 g/ha: 500 g ai/ha, visual injury, read-out: Plant response rating, Pigweed, Palmer
# In short: (§1)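 Plants were grown in loam and sand and treated preemergence or postemergence (one- to two-leaf stage, 2–10 cm) with compound in solvent plus surfactant. Response was scored against untreated controls after 10 greenhouse days, where 0 means no effect and 100 complete control.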
# foxtail, giant [1] = experiment: Test A preemergence; format: in vivo, Setaria faberi; conditions: Setaria faberi, pre-emergence, 240 h, read-out: Plant response rating, Foxtail, Giant; for pest or weed control at 125 g/ha: 125 g ai/ha; for pest or weed control at 500 g/ha: 500 g ai/ha
# In short: as §1
# goosegrass [2] = experiment: Test A postemergence; format: in vivo, Eleusine indica; conditions: Eleusine indica, post-emergence, 240 h, postemergence, 10 days, 0 to 100 scale (0 no effect, 100 complete control); for pest or weed control at 125 g/ha: 125 g ai/ha, read-out: Goosegrass plant response rating; for pest or weed control at 500 g/ha: 500 g ai/ha, visual injury, read-out: Plant response rating, Goosegrass
# In short: as §1
# blackgrass [3] = experiment: Test A postemergence; format: in vivo, Alopecurus myosuroides; conditions: Alopecurus myosuroides, post-emergence, 240 h, postemergence, 10 days, 0 to 100 scale (0 no effect, 100 complete control); for pest or weed control at 125 g/ha: 125 g ai/ha, read-out: Blackgrass plant response rating; for pest or weed control at 500 g/ha: 500 g ai/ha, visual injury, read-out: Plant response rating, Blackgrass
# In short: as §1
# foxtail, giant [4] = experiment: Test A postemergence; format: in vivo, Setaria faberi; conditions: Setaria faberi, post-emergence, 240 h, postemergence, 10 days, 0 to 100 scale (0 no effect, 100 complete control); for pest or weed control at 125 g/ha: 125 g ai/ha, read-out: Foxtail, Giant plant response rating; for pest or weed control at 500 g/ha: 500 g ai/ha, visual injury, read-out: Plant response rating, Foxtail, Giant
# In short: as §1
# galium = experiment: Test A postemergence; format: in vivo, Galium aparine; conditions: Galium, post-emergence, 240 h, postemergence, 10 days, 0 to 100 scale (0 no effect, 100 complete control); for pest or weed control at 125 g/ha: 125 g ai/ha, read-out: Galium plant response rating; for pest or weed control at 500 g/ha: 500 g ai/ha, visual injury, read-out: Plant response rating, Galium
# In short: as §1
# blackgrass [5] = experiment: Test A preemergence; format: in vivo, Alopecurus myosuroides; conditions: Alopecurus myosuroides, pre-emergence, 240 h, read-out: Plant response rating, Blackgrass; for pest or weed control at 125 g/ha: 125 g ai/ha; for pest or weed control at 500 g/ha: 500 g ai/ha
# In short: as §1
# ryegrass, Italian = experiment: Test A postemergence; format: in vivo, Lolium multiflorum; conditions: Lolium multiflorum, post-emergence, 240 h, postemergence, 10 days, 0 to 100 scale (0 no effect, 100 complete control); for pest or weed control at 125 g/ha: 125 g ai/ha, read-out: Ryegrass, Italian plant response rating; for pest or weed control at 500 g/ha: 500 g ai/ha, visual injury, read-out: Plant response rating, Ryegrass, Italian
# In short: as §1
# goosegrass [6] = experiment: Test A preemergence; format: in vivo, Eleusine indica; conditions: Eleusine indica, pre-emergence, 240 h, read-out: Plant response rating, Goosegrass; for pest or weed control at 125 g/ha: 125 g ai/ha; for pest or weed control at 500 g/ha: 500 g ai/ha
# In short: as §1
# sedge, umbrella = experiment: Test B flooded paddy test; format: in vivo, Cyperus difformis; conditions: Cyperus difformis, 312 h; 250 g ai/ha, Flood, 13 days, 0 to 100 scale (0 no effect, 100 complete control); read-out: Plant response rating, Sedge, Umbrella
# In short: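 Each species was raised to the 2-leaf stage. At treatment, each pot received floodwater 3 cm deep, with the chemical delivered into the water. Greenhouse holding followed for 13 days, then percent control was estimated visually versus untreated pots.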
# ragweed = experiment: Test A postemergence; format: in vivo, Ambrosia artemisiifolia; conditions: Ambrosia artemisiifolia, post-emergence, 240 h, postemergence, 10 days, 0 to 100 scale (0 no effect, 100 complete control); for pest or weed control at 125 g/ha: 125 g ai/ha, read-out: Ragweed plant response rating; for pest or weed control at 500 g/ha: 500 g ai/ha, visual injury, read-out: Plant response rating, Ragweed
# In short: as §1
# soybean = experiment: Test A preemergence; format: in vivo, Glycine max; conditions: Glycine max, pre-emergence, 240 h, read-out: Plant response rating, Soybean; for plant injury at 125 g/ha: 125 g ai/ha; for plant injury at 500 g/ha: 500 g ai/ha
# In short: as §1
# wheat = experiment: Test A postemergence; format: in vivo, Triticum aestivum; conditions: Triticum aestivum, post-emergence, 240 h, postemergence, 10 days, 0 to 100 scale (0 no effect, 100 complete control); for plant injury at 125 g/ha: 125 g ai/ha, read-out: Wheat plant response rating; for plant injury at 500 g/ha: 500 g ai/ha, visual injury, read-out: Plant response rating, Wheat
# In short: as §1
# oat, wild = experiment: Test A postemergence; format: in vivo, Avena fatua; conditions: Avena fatua, post-emergence, 240 h, postemergence, 10 days, 0 to 100 scale (0 no effect, 100 complete control); for pest or weed control at 125 g/ha: 125 g ai/ha, read-out: Oat, Wild plant response rating; for pest or weed control at 500 g/ha: 500 g ai/ha, visual injury, read-out: Plant response rating, Oat, Wild
# In short: as §1
# [7] = visual injury after 10 days, 0 to 100 scale, 0 is no effect, 100 is complete control
# [8] = 0 to 100 scale (0 no effect, 100 complete control), 10 days
Compound,"pest or weed control at 125 g/ha (pigweed, palmer) [%]","pest or weed control at 500 g/ha (pigweed, palmer) [%]","pest or weed control at 125 g/ha (foxtail, giant [1]; [7]) [%]",pest or weed control at 125 g/ha (goosegrass [2]) [%],pest or weed control at 500 g/ha (goosegrass [2]) [%],pest or weed control at 125 g/ha (blackgrass [3]) [%],pest or weed control at 500 g/ha (blackgrass [3]) [%],"pest or weed control at 125 g/ha (foxtail, giant [4]) [%]","pest or weed control at 500 g/ha (foxtail, giant [4]) [%]",pest or weed control at 125 g/ha (galium) [%],pest or weed control at 500 g/ha (galium) [%],pest or weed control at 125 g/ha (blackgrass [5]; [7]) [%],"pest or weed control at 125 g/ha (ryegrass, Italian) [%]","pest or weed control at 500 g/ha (ryegrass, Italian) [%]",pest or weed control at 125 g/ha (goosegrass [6]; [7]) [%],"pest or weed control at 250 g/ha (sedge, umbrella) [%]",pest or weed control at 125 g/ha (ragweed) [%],pest or weed control at 500 g/ha (ragweed) [%],plant injury at 125 g/ha (soybean; [7]) [%],plant injury at 125 g/ha (wheat) [%],also measured
"CCc1ccc(-n2cnc(C(C)C)n2)cc1C(=O)N1C[C@H](C)Oc2c(Cl)cccc21 [Compound 94, [(2S)-8-Chloro-2,3-dihydro-2-methyl-4H-1,4-benzoxazin-4-yl][2-ethyl-5-[3-(1-methylethyl)-1H-1,2,4-triazol-1-yl]phenyl]methanone]",90,90,100,60,90,60,90,90,90,100,100,90,50,90,100,98,50,50,50,30,"pest or weed control at 500 g/ha (foxtail, giant [1]; [8]): 100%; pest or weed control at 500 g/ha (blackgrass [5]; [8]): 90%; pest or weed control at 500 g/ha (goosegrass [6]; [8]): 100%; plant injury at 500 g/ha (soybean; [8]): 100%; plant injury at 500 g/ha (wheat): 70%; pest or weed control at 125 g/ha (oat, wild): 80%; pest or weed control at 500 g/ha (oat, wild): 80%"
"Cc1cccc2c1O[C@@H](C)CN2C(=O)c1cccc(-n2cnn(C)c2=O)c1 [Compound 117, 4-[3-[[(2S)-2,3-Dihydro-2,8-dimethyl-4H-1,4-benzoxazin-4-yl]carbonyl]phenyl]-2,4-dihydro-2-methyl-3H-1,2,4-triazol-3-one]",10,30,60,30,70,50,90,20,70,0,0,30,30,60,50,0,0,0,30,10,"pest or weed control at 500 g/ha (foxtail, giant [1]; [7]): 90%; pest or weed control at 500 g/ha (blackgrass [5]; [7]): 90%; pest or weed control at 500 g/ha (goosegrass [6]; [7]): 100%; plant injury at 500 g/ha (soybean; [7]): 70%; plant injury at 500 g/ha (wheat): 40%; pest or weed control at 125 g/ha (oat, wild): 10%; pest or weed control at 500 g/ha (oat, wild): 40%"
